pIC50: −log10 of the molar value. Calls of active or inactive are those of the source. No rule for the calls is given here.
How the values were obtained:
[1] = target: In vitro counter assay against key known off-targets for selectedBMP Compounds; assay: PubChem AID 686923; settings: in vitro kinase counter-screen panel
[2] = target: Vascular endothelial growth factor receptor 2 (Homo sapiens) (UniProt P35968); assay: PubChem AID 686923; settings: in vitro kinase counter-screen panel
Chain of Vascular endothelial growth factor receptor 2 (Homo sapiens) (P35968 whole entry, looked up): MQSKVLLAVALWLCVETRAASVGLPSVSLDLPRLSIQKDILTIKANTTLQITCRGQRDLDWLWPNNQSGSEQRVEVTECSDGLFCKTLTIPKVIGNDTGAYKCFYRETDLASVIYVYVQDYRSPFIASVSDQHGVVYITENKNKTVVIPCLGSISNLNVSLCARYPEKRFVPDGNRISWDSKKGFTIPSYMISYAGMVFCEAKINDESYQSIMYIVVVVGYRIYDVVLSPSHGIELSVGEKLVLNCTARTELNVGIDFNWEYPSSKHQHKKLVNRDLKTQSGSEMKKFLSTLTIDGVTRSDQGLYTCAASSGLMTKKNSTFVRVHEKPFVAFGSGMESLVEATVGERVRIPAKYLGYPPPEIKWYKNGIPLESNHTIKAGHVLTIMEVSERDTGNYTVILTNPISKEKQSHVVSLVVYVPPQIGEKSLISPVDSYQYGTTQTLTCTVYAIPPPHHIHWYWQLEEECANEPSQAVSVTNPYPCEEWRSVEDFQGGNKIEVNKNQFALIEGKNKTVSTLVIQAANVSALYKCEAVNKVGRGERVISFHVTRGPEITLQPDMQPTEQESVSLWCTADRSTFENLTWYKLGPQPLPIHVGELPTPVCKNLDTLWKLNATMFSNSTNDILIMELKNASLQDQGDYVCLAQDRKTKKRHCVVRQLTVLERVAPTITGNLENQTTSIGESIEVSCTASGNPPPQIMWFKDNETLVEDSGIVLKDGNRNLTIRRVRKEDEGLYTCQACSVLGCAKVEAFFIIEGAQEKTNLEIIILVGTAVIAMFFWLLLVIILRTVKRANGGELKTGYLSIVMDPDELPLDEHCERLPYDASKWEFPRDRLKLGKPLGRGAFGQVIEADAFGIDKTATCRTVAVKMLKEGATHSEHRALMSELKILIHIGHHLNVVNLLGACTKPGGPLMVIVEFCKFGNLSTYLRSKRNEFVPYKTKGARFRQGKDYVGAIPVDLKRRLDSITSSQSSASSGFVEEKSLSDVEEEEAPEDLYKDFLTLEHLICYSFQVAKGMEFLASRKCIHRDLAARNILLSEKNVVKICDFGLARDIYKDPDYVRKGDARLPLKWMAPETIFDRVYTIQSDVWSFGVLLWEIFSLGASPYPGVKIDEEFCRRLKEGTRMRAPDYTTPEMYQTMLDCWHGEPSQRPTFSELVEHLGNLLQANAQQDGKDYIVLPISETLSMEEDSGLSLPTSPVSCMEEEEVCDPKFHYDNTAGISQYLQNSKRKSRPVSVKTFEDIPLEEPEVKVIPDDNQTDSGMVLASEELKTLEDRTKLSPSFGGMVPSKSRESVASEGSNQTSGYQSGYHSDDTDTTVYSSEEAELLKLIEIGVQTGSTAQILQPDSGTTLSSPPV

Row | SMILES | pIC50 [1] | IC50 [2] | IC50 [1]
1 | c1cc(-c2cnn3cc(-c4ccc(N5CCNCC5)cc4)cnc23)c2cccnc2c1 | 3.60 |  | 
2 | COc1ccc(-c2cnc3c(-c4cccc5ncccc45)cnn3c2)cc1 |  | inactive | 
3 | COc1ccc(-c2cnc3c(-c4cccc5cccnc45)cnn3c2)cc1 |  | inactive | inactive

From PubChem BioAssay AID686923 (Vanderbilt Specialized Chemistry Center, 2013)
